Test results as given in ChEMBL document CHEMBL1201862, “PubChem BioAssay data set” (2004).
Activity calls are given as the source filed them.

Columns and labels:
[1] = biological target: T1, Heat shock factor protein 1 (Mus musculus, UniProt P38532); assay: HSF1 potentiators in luciferase reporter cells, confirmation, cell-based, NIH3T3, luminescence, dose retest (AID 435004); assay type: functional;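 note: stress induced by proteasome inhibitor MG132 added 30 min after compound; luciferase reporter driven by HSF1 response element in NIH3T3 cells; actives raise luminescence as potentiators of the MG132 stress response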
T1 sequence (P38532 whole entry): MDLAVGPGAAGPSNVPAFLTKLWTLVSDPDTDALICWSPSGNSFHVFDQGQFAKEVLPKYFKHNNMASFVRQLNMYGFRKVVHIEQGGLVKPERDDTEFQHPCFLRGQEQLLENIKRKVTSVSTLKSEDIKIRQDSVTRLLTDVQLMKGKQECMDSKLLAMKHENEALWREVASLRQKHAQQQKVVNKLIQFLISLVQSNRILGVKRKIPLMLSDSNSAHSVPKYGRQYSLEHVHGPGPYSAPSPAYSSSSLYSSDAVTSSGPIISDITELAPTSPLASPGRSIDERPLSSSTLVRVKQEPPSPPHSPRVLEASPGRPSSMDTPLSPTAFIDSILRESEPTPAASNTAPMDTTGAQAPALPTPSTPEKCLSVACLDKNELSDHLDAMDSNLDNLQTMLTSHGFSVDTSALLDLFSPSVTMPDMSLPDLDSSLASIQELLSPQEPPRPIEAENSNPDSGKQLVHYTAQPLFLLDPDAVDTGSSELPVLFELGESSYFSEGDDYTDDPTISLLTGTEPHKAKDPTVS

Cytochrome P450 3A4 = Cytochrome P450 3A4 (Homo sapiens, UniProt P08684);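 note: CYP3A4 tested as one member of a cytochrome P450 panel screen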
Cytochrome P450 3A4, sequence (P08684 whole entry): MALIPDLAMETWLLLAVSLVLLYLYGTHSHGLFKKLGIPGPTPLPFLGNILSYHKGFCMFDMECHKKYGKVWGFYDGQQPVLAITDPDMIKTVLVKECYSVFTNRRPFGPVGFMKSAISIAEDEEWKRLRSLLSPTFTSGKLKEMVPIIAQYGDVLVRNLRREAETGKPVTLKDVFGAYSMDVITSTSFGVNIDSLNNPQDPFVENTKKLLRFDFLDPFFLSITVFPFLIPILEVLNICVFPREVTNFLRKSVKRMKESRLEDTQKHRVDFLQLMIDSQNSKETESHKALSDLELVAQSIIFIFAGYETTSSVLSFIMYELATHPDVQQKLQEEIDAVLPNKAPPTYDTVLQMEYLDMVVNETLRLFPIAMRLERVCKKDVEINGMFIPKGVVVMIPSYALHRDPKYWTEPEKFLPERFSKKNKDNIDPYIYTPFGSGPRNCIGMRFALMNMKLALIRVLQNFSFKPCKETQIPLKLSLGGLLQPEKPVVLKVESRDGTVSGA

Cytochrome P450 2D6 = Cytochrome P450 2D6 (Homo sapiens, UniProt P10635);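 note: CYP2D6 member of a cytochrome P450 panel assay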
Cytochrome P450 2D6, sequence (P10635 whole entry): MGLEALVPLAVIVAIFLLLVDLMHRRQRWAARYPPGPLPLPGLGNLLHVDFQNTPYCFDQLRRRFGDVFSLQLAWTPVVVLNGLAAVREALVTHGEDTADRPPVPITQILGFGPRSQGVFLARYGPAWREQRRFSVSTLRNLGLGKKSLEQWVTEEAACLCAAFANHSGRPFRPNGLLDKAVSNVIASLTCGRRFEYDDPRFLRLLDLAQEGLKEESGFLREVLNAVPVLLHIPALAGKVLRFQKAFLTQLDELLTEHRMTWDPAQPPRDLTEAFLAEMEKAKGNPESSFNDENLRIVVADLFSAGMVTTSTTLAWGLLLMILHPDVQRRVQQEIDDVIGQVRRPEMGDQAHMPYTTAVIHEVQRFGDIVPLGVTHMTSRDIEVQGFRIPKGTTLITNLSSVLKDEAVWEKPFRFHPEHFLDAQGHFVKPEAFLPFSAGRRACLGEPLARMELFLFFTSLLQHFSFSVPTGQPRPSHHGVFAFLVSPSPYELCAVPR

Cytochrome P450 2C19 = Cytochrome P450 2C19 (Homo sapiens, UniProt P33261); assay: Cytochrome panel assay with activity outcomes. Panel member name: p450-cyp2c19 Compounds with AC50 equal or less than 10 uM are considered active; assay type: functional; settings: read-out: AC50
Cytochrome P450 2C19, sequence (P33261 whole entry): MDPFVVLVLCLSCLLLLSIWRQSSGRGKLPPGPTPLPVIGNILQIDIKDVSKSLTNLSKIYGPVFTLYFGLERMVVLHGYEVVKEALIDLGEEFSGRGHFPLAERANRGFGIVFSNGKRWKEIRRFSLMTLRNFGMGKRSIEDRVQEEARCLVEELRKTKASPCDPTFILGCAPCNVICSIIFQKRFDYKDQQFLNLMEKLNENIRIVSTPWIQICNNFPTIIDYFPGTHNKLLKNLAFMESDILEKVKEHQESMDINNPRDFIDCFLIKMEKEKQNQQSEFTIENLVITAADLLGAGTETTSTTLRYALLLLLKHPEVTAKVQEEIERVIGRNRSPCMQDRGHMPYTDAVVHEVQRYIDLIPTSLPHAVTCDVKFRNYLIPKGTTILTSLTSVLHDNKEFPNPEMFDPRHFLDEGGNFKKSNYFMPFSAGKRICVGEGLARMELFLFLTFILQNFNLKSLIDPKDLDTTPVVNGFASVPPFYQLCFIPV

Protein RecA = biological target: T2, Protein RecA (Mycobacterium tuberculosis, UniProt P9WHJ3); assay: Fluorescence Cell-Free Homogeneous Dose Retest to Identify Inhibitors of RecA-Intein Splicing Activity. [Related pubchem assays (depositor defined):AID2097, AID2223, AID489010, AID492950]; assay type: functional
T2 sequence (P9WHJ3 whole entry): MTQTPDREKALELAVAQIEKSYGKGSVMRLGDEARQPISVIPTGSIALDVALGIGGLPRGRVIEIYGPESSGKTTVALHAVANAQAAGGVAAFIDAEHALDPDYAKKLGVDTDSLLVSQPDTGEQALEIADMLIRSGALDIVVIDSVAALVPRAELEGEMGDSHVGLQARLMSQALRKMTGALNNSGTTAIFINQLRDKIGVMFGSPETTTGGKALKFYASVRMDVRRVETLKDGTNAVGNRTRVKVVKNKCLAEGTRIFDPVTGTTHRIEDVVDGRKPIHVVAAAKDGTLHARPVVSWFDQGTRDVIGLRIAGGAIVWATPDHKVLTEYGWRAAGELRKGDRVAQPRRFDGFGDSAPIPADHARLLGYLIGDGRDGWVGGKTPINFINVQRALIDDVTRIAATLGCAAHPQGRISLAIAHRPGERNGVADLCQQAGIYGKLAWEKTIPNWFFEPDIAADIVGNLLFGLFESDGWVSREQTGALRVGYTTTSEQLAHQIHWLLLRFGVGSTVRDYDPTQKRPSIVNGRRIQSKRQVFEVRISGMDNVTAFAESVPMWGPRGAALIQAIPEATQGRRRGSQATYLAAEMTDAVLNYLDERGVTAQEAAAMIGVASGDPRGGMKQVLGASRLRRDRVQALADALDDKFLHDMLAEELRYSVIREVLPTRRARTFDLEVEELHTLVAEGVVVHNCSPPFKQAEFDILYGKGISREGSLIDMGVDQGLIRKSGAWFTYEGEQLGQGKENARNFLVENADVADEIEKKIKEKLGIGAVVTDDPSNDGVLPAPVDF

[2] = biological target: T3, Replicative DNA helicase DnaB (Mycobacterium tuberculosis, UniProt P9WMR3); assay: DnaB intein splicing inhibitors, dose response, biochemical, cell-free fluorescence (AID 449749); assay type: functional
T3 sequence (P9WMR3 whole entry): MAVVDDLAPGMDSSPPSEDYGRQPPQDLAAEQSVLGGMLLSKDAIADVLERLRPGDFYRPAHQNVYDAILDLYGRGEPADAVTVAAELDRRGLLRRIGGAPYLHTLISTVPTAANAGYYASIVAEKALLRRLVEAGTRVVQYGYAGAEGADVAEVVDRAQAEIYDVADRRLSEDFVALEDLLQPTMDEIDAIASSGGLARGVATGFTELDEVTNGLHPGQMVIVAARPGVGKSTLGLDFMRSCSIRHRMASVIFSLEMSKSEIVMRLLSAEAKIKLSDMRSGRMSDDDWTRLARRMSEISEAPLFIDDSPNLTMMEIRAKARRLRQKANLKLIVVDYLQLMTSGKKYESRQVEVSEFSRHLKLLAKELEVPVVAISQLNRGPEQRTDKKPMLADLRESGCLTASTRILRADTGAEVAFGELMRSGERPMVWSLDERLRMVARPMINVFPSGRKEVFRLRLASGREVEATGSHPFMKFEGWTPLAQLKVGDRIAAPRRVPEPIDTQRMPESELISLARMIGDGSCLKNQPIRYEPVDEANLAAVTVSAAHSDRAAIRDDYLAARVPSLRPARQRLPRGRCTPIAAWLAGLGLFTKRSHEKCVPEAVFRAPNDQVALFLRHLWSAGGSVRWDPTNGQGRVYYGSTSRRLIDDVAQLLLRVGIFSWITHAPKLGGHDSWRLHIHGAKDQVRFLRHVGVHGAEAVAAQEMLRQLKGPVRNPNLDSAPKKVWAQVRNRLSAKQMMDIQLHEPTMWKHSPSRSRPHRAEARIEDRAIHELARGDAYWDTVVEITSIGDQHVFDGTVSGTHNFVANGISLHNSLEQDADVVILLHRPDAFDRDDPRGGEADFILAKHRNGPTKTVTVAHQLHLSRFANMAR

Streptokinase A = biological target: T4, Streptokinase A (Streptococcus pyogenes serotype M1, UniProt P10520); assay: S. pyogenes streptokinase expression inhibitors, potency, dose response, plasminogen activation absorbance, OD405 (AID 1914); assay type: functional, Streptococcus pyogenes M1 GAS;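 note: secreted streptokinase activity via plasminogen activation per viability signal from cell pellet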
T4 sequence (P10520 whole entry): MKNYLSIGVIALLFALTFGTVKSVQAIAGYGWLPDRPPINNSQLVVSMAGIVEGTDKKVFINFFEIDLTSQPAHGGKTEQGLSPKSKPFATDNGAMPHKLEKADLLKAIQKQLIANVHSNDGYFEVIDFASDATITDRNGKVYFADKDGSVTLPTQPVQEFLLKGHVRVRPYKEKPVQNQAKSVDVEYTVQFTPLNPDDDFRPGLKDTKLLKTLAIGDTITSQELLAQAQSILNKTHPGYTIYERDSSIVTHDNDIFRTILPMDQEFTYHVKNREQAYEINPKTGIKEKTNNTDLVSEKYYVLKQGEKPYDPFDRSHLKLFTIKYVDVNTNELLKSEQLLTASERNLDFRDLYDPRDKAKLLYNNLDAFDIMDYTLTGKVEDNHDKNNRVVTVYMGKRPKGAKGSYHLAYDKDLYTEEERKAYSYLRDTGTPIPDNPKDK

[3] = HEp-2 cell cytotoxicity, dose response, cytotoxicity control for RSV inhibitor project, HTS (AID 2410); assay type: functional; settings: human respiratory syncytial virus
Streptococcus = assay: Group A Streptococcus viability loss, dose response, counter-screen for streptokinase expression inhibitor project, luminescence, BacTiterGlo (AID 1915); assay type: functional, organism-based;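 note: potency for reduction of bacterial viability or growth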
[4] = test system: Streptococcus sp. 'group A'; assay: growth inhibition of control SK(-) GAS strain, dose response, counter-screen for streptokinase expression inhibitor project, luminescence, kanamycin, BacTiterGlo, confirmation (AID 1900); assay type: functional, organism-based
Cytochrome P450 2C9 = Cytochrome P450 2C9 (Homo sapiens, UniProt P11712)
Cytochrome P450 2C9, sequence (P11712 whole entry): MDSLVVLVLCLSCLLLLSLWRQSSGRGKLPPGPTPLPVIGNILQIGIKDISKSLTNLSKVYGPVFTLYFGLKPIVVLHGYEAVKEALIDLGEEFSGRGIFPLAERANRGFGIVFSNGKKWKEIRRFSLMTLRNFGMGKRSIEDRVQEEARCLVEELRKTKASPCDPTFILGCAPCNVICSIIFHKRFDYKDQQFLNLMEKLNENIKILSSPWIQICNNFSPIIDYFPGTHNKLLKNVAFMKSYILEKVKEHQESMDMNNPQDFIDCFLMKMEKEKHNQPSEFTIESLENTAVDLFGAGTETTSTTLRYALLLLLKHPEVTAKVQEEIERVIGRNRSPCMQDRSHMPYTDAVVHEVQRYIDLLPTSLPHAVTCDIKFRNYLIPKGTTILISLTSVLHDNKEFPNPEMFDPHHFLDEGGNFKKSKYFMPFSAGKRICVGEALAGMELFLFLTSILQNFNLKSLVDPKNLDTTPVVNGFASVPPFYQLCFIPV

Compound: Cc1ccc(S(=O)(=O)n2cnc3ccccc32)cc1[N+](=O)[O-]
- EC50 [1]: > 260 µM (inactive)

Compound: CSc1nc(Sc2cccc(Cl)c2)c2ccccc2n1
- AC50 (Cytochrome P450 3A4): 35.5 µM (inconclusive)

Compound: N#Cc1cccc(-c2cncnc2-n2ccnc2)c1
- AC50 (Cytochrome P450 2D6): 39.8 µM (inconclusive)
- AC50 (Cytochrome P450 2C19): 39.8 µM (inconclusive)

Compound: CCc1ccccc1NC(=O)COc1ccc2c(=O)c(Oc3cc(C)ccc3C)coc2c1
- EC50 [1]: > 260 µM (inactive)

Compound: CC(C)Cn1c(C(C)C)nc([N+](=O)[O-])c1S(=O)(=O)c1ccc(F)cc1
- EC50 (Protein RecA): 9.69 µM (active)
- AC50 [2]: 13.9 µM (active)

Compound: N#C/C(=C(/O)CN1CCN(c2ccccc2F)CC1)c1nc(-c2ccccc2)cs1
- EC50 (Streptokinase A): > 150 µM (not active)
- CC50 [3]: 5 µM (active)
- EC50 (Streptococcus): 86.1 µM (active)
- EC50 [4]: 11.7 µM (active)

Compound: CN1CCN(c2ccnc(-c3ccoc3)n2)CC1
- AC50 (Cytochrome P450 2D6): 39.8 µM (inconclusive)

Compound: CN(C)CC(C)(C)CN1c2ccccc2Sc2ccccc21
- AC50 (Cytochrome P450 3A4): 5.01 µM (inconclusive)
- AC50 (Cytochrome P450 2C19): 2 µM (inconclusive)

Compound: CN(C)Cc1cc(C(F)(F)F)ccc1C(O)(c1ccccc1)c1ccccc1
- AC50 (Cytochrome P450 2D6): 3.16 µM (inconclusive)

Compound: COc1ccccc1N1CCN(C(=O)c2ccc3c(=O)n(Cc4ccco4)c(=S)[nH]c3c2)CC1
- EC50 [1]: > 260 µM (inactive)

Compound: CC1=C(Nc2c(C)cc(O)cc2O)C(=O)C=c2oc3c(c21)C(C)=C(Nc1c(C)cc(O)cc1O)C(=O)C=3
- AC50 (Cytochrome P450 2D6): 2.51 µM (inconclusive)

Compound: COc1cccc(-c2ccc3ncnc(N4CCN(C)CC4)c3c2)c1
- AC50 (Cytochrome P450 2D6): 39.8 µM (inconclusive)
- AC50 (Cytochrome P450 2C19): 31.6 µM (inconclusive)

Compound: Cc1ccc(-c2nc3ncccn3c2Nc2ccccc2C)o1
- EC50 [1]: > 260 µM (inactive)

Compound: CCc1ccccc1N=C(S)NC1CC2CCC(C1)N2Cc1ccco1 (stereo unspecified)
- AC50 (Cytochrome P450 2D6): 14.1 µM (inconclusive)
- AC50 (Cytochrome P450 3A4): 20 µM (inconclusive)

Compound: O=C(/C=C/c1ccccc1)c1ccc2c3c(cccc13)CC2
- EC50 (Protein RecA): 11.4 µM (active)
- AC50 [2]: > 380 µM (inactive)

Compound: CCC/C=C(\CCC)C(NC(=O)c1ccc(C(F)(F)F)cc1)c1ccc(C(F)(F)F)cc1 (stereo unspecified)
- AC50 (Cytochrome P450 3A4): 10 µM (inconclusive)

Compound: CCNc1ncc2ncc(=O)n(Cc3cccs3)c2n1
- AC50 (Cytochrome P450 3A4): 20 µM (inconclusive)
- AC50 (Cytochrome P450 2C9): 15.8 µM (inconclusive)
- AC50 (Cytochrome P450 2C19): 20 µM (inconclusive)

Compound: Cc1ccc(S(=O)(=O)N[C@@H](CCc2ccccc2)CC(=O)C(C)(C)C)cc1
- AC50 (Cytochrome P450 2D6): 3.16 µM (inconclusive)

Compound: O=C(c1ccc(Cl)c(Cl)c1)c1cc(-c2ccccn2)c(N2CCOCC2)s1
- AC50 (Cytochrome P450 2D6): 10 µM (inconclusive)

Compound: Cn1c(-c2sc(=S)n(-c3ccccc3)c2N)nc2ccccc21
- AC50 (Cytochrome P450 2D6): 1.26 µM (inconclusive)

Compound: COCCCNCCOc1ccc(C)cc1[N+](=O)[O-]
- EC50 [1]: > 260 µM (inactive)

Compound: CCOC(=O)C1=C(CN2CCc3ccccc32)NC(=O)NC1c1ccc(Cl)cc1 (stereo unspecified)
- EC50 [1]: > 260 µM (inactive)

Compound: COc1cc2c(cc1NC(=O)COC(=O)[C@@H](NS(=O)(=O)c1ccccc1)C(C)C)oc1ccccc12
- EC50 [1]: > 260 µM (inactive)

Compound: CC(=O)c1ccc(NC(=O)CCCN2C(=O)/C(=C/C(C)=C/c3ccccc3)SC2=S)cc1
- EC50 [1]: 106 µM (active)

Compound: Cc1cccc(CN(C(S)=Nc2c(C)cccc2C)c2cccnc2)c1
- EC50 [1]: > 260 µM (inactive)

Compound: CC1=NN(c2ccccc2)C(=O)/C1=C/c1cn(C)c2ccccc12
- EC50 (Protein RecA): 39 µM (active)
- AC50 [2]: 57.1 µM (active)

Compound: Oc1nc(CN2CC=C(c3ccccc3)CC2)nc2scc(-c3cccs3)c12
- EC50 (Streptokinase A): > 150 µM (not active)
- EC50 (Streptococcus): > 150 µM (not active)
- EC50 [4]: 12.2 µM (active)

Compound: COC(=O)c1ccc(C(NC(=O)c2ccccc2)[C@]2(C)C[C@H]2C2CCCCC2)cc1 (stereo partly specified)
- AC50 (Cytochrome P450 3A4): 6.31 µM (inconclusive)

Compound: CC(=O)O[C@]12CC[N@+]3(C)CCCC[C@@H]3[C-]1Nc1ccccc12
- AC50 (Cytochrome P450 2D6): 3.16 µM (inconclusive)

Compound: COc1ccc(C2CC3=Nc4ncnn4C(c4ccccc4)C3=C(O)C2)cc1 (stereo unspecified)
- EC50 [1]: > 260 µM (inactive)

Compound: Cn1cccc1C(=O)N1CCC2(CCCN(Cc3ccccc3)C2)CC1
- AC50 (Cytochrome P450 3A4): 31.6 µM (inconclusive)

Compound: CCOc1ccc(Cl)cc1C(c1c(C)n[nH]c1O)c1c(C)n[nH]c1O
- EC50 (Protein RecA): 0.221 µM (active)
- AC50 [2]: 0.551 µM (active)

Compound: Clc1ccc(-c2nc(/C=N/N3CCOCC3)c3ccccn23)cc1
- EC50 [1]: > 260 µM (inactive)

Compound: CC1(C)CC(=O)C/C(=N/NC(=O)CCCOc2ccc(Cl)cc2Cl)C1
- EC50 [1]: > 260 µM (inactive)

Compound: O=C(N/N=C/c1c[nH]c2ccc(Br)cc12)c1ccn(Cc2ccc(Cl)cc2)n1
- AC50 (Cytochrome P450 3A4): 3.98 µM (inconclusive)
- AC50 (Cytochrome P450 2C9): 39.8 µM (inconclusive)

Compound: COc1ccc(C)cc1NC(=O)C/C(C)=N/NC(=O)Cc1cccc2ccccc12
- EC50 [1]: > 260 µM (inactive)

Compound: CC1=C(C)/C(=N\OC(=O)/C=C/c2ccccc2)C=CC1=O
- EC50 (Protein RecA): 0.532 µM (active)
- AC50 [2]: > 380 µM (inactive)

Compound: O=C(O)c1c(Br)c(Br)c(Br)c(Br)c1C1c2ccc(O)cc2Oc2cc(O)ccc21
- AC50 (Cytochrome P450 3A4): 3.98 µM (inconclusive)
- AC50 (Cytochrome P450 2C9): 7.94 µM (inconclusive)
